Earlier results in patent US6753016B2, “Preservation of wood products” (Rohm and Haas Company, priority 2001, dated 2004).

Conditions: aqueous treatment of wood surfaces; compared to conventional chromium(VI) treatment

For `[Cl][Fe]([Cl])[Cl]` [ferric chloride], the “protective effect on treated wood in weathering” value is given as “does not have a protective effect”.
